Assay [1] deals with T1, Endoribonuclease toxin MazF (Escherichia coli K-12, UniProt P0AE70).
T1 sequence (P0AE70 whole entry): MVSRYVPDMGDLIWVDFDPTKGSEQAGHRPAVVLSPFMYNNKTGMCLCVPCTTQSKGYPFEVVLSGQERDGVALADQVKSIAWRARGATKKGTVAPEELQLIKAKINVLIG
The experiment in a line: MazF toxin RNase activators, dose response, biochemical, fluorescence, single-stranded RNA substrate, uHTS hits (AID 588481). It counts as functional.

The target in assay [2] is T1, Endoribonuclease toxin MazF. The experiment in a line: fluorescent RNA oligo signal without MazF, dose response, counter-screen for MazEF activator project, biochemical, fluorescence, single-stranded RNase substrate (AID 588502). It counts as functional.
The test system of the next assay is CHO. Put plainly: cytotoxicity in TLR9-MyD88 CHO cells, dose response, cytotoxicity control for TLR9-MyD88 binding inhibitor project, cell-based, luminescence (AID 588339).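 Note: CHO cells stably coexpressing TLR9 and MyD88 fusions from primary screen; compound exposure lasted 48 hours before viability readout.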 It counts as functional, hamster. Particulars: Cricetulus griseus.
Assay [3] addresses Arf-GAP with SH3 domain, ANK repeat and PH domain-containing protein 1 (Homo sapiens, UniProt Q9ULH1). It counts as functional.
A further assay has as its target Beta Lactamase (Pseudomonas aeruginosa, UniProt Q932Y6). Put plainly: beta-lactamase reporter inhibitor potency, dose response, artefact control for TLR9-MyD88 binding inhibitor project, BLA reporter cells, FRET fluorescence (AID 588341).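 Note: cell based assay in CHO-K1 cells stably expressing beta-lactamase.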 It counts as cell-based.
A further assay relates to HEK293. The experiment in a line: inhibitors of LMP1-driven NF-kB reporter, dose response, cell-based, HEK293, luciferase, cherry-pick (AID 588343). Particulars: Homo sapiens. It counts as functional.
A short description of assay [4]: LGR2 antagonists, dose response, cell-based, HEK293, CRE-luciferase reporter, cherry pick, set 2 (AID 743343).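 Note: transfected cells were stimulated with diluted bursicon conditioned medium after compound addition.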 It counts as functional. In general terms: Reporter assays use an easily measured gene product as a stand-in for the process of interest.
Assay [5] can be described thus: HepG2 cell cytotoxicity, dose response, cytotoxicity control, plate reader, cherry-pick, antagonist series (AID 743416). The class given is functional, cell-based.
The nature of assay [6]: A549 cell cytotoxicity, dose response, cytotoxicity control, plate reader, cherry-pick, antagonist series (AID 743412). The class given is functional, cell-based.
Assay [7] in a line: MC4R antagonists, dose response, counter-screen for LGR2 antagonist project, cell-based, plate reader, cherry pick (AID 743444).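 Note: transfected HEK 293 cells stimulated with alpha-MSH peptide; potency of inhibitors of the alpha-MSH evoked signal.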 The class given is functional.
Assay [8] is described as follows: Luminescence Cell-Based Dose Response HTS to Identify Inhibitors of 5'UTR Stem-Loop Driven Prion Protein mRNA Translation in H4 Neuroglioblastoma Cells. [Related pubchem assays: 1827 (Project Summary), 1813 (Primary HTS)]. The class given is functional.
A short description of assay [9]: HEK293 cell cytotoxicity, dose response, cytotoxicity control, plate reader, cherry-picked samples (AID 743446). It counts as functional, cell-based.
Assay [10] is described as follows: inhibitors of SNCA 5'UTR-driven reporter translation, confirmation, H4 neuroglioma cells, luminescence (AID 1988). The class given is functional, cell-based.
A further assay deals with HeLa. Put plainly: HeLa cell cytotoxicity, dose response, cytotoxicity control for MITF activator project, CellTiter-Glo luminescence, cherry-pick samples (AID 540259). Particulars: Homo sapiens. The class given is functional, cell-based. (In general: ATP-based viability assays read luminescence as a measure of living cells.)
Assay [11] concerns the target T2, Corticotropin-releasing factor receptor 2/Corticotropin-releasing factor-binding protein (Homo sapiens, UniProt P24387+Q13324).
T2 sequence (Q13324 whole entry): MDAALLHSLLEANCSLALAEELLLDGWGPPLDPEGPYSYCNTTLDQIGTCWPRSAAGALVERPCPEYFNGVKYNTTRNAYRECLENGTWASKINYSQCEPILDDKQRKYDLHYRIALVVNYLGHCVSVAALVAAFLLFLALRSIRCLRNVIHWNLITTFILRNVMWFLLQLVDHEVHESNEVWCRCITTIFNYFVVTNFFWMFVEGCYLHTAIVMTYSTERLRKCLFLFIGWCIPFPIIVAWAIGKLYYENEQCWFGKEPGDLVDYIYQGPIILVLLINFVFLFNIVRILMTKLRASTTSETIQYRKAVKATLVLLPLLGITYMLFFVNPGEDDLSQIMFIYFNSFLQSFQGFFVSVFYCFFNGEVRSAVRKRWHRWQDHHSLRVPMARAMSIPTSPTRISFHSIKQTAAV
T2 sequence (P24387 whole entry): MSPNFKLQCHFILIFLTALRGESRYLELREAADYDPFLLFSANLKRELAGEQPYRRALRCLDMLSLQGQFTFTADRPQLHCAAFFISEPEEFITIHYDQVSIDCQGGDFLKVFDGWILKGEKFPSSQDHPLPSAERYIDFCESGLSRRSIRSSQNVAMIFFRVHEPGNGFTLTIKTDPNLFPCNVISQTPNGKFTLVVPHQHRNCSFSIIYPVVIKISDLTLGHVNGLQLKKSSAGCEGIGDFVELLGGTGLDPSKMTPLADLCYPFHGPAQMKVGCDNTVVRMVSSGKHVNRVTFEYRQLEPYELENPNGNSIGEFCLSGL
Put plainly: activators of CRF receptor 2 with binding protein – uHTS hits, confirmation (AID 602473). The class given is functional. Particulars: read-out: EC50_Mean.

Assay [12] deals with T2, Corticotropin-releasing factor receptor 2/Corticotropin-releasing factor-binding protein. Put plainly: Dose Response confirmation of uHTS hits for small molecule antagonists of the CRF-binding protein and CRF-R2 receptor complex. The class given is functional. Particulars: read-out: IC50_Mean.

Activity calls are given as the source filed them.

Chain of Beta Lactamase (Q932Y6 whole entry): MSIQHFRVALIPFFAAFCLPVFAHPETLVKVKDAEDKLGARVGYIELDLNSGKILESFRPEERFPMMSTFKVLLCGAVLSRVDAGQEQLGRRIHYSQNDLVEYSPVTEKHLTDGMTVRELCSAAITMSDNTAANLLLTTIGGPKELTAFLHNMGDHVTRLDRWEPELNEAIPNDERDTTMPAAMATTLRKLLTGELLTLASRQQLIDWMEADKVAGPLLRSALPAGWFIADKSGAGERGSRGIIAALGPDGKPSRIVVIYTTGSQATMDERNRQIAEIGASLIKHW
Chain of Arf-GAP with SH3 domain, ANK repeat and PH domain-containing protein 1 (Q9ULH1 whole entry, the tested form may be a part): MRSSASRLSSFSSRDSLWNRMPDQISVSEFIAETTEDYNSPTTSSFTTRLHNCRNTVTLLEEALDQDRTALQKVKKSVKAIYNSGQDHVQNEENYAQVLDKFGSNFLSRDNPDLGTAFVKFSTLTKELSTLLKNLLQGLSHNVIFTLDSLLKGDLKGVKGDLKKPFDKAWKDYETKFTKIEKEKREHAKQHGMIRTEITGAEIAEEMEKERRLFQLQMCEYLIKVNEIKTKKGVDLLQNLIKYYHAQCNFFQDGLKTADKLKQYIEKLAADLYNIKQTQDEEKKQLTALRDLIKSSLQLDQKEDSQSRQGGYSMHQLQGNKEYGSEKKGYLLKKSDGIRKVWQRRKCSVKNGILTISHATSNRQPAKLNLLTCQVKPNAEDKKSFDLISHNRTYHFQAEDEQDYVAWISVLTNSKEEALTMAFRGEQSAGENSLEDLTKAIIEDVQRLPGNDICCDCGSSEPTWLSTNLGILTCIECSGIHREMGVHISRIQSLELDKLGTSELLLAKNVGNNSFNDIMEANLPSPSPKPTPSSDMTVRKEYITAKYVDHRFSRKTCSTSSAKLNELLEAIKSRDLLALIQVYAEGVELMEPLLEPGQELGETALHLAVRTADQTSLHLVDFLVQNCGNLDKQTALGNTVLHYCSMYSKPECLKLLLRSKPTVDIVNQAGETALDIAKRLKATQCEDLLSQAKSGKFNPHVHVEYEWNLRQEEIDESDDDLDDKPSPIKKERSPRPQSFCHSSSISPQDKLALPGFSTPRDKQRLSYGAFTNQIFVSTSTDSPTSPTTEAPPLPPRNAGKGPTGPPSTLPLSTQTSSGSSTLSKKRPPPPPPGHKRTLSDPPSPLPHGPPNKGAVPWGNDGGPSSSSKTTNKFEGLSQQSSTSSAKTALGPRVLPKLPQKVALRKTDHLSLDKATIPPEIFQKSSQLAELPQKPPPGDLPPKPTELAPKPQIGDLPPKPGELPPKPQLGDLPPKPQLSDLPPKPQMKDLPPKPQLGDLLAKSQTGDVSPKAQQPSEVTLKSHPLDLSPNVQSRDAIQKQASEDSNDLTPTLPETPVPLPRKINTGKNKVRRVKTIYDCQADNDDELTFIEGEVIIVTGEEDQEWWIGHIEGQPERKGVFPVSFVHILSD

On to `COc1cc2c3nnc(-c4ccc(F)cc4)c-3cn(Cc3cccc(C)c3)c2cc1OC`, for which the EC50 in assay [1] was 24.1 µM (inactive); in assay [2], 16.7 µM (active). Further, the IC50 is 10.2 µM (inactive) in the assay with CHO, 7.44 µM (active) in assay [3] and 3.92 µM (active) on Beta Lactamase.
As for `O=C(Nc1ccccn1)c1onc2c1CCCC2`, the AC50 with HEK293 was 1.46 µM (active); in assay [4], 3.65 µM (active); in assay [5] it was 15.9 µM (active); in [6], 45.1 µM (active); in assay [7] it was 3.55 µM (active); in [9], > 52 µM (inactive). In addition, the EC50 in [8] was 50.2 µM (active); in assay [10], 4.67 µM (active).
`Nc1c(C(=O)N2CCCC2)sc2nc(-c3ccccc3)ccc12`: in the assay on HeLa, the half-maximal activity concentration (AC50) is 197 µM (active). Further, the IC50 in the assay on CHO was > 49.7 µM (inactive); on Beta Lactamase it was 12.4 µM (inactive).
On to `COc1ccc(C(=O)Nn2c(SCC(=O)NC3CCCCC3)nc3ccccc3c2=O)cc1`, for which, in the assay with HEK293, the AC50 is 6.79 µM (active). In addition, the EC50 in assay [11] is > 53 µM (inactive). In addition, the IC50 in [12] was < 0.368 µM (active).

By AC50 is commonly meant the concentration giving half of the maximal activity seen.

For the origin of these results see ChEMBL document CHEMBL1201862, “PubChem BioAssay data set” (2004).
